# Reference: patent US12252477B2, “Applications of known and novel cannabinoids” (Bessor Pharma, LLC, priority 2018, dated 2025)
# Target: T1, TRPV1 channels (Homo sapiens, UniProt Q8NER1)
# T1 construct: expressed in transfected cells; host or cells: HEK TRex (HEK 293 T-REx) cells stably carrying a tetracycline-inducible TRPV1 transgene
# Assay: Calcium assay (Fluo-4) in HEK-TRPV1 cells, dose response comparison
# Assay type: cell-based
# Conditions: Fluo-4 loaded, 1 mM external calcium chloride, 0-20 seconds baseline, compound added at 20 seconds, FIGS. 1A-1D
# Procedure: Molecular Pharmacology, 2016, volume 90, pages 300-308) HEK 293 cells with TRPV1 channels have been used as model systems (P. Geppetti and M. Trevisani, Activation and sensitisation of the vanilloid receptor: role in gastrointestinal inflammation and function, British Journal of Pharmacology, 2004, volume 141, pages 1313-1320);
# HEK TRexTRPV1 cultured in DMEM, 10% Fetal Bovine Serum, 2 mM L-glutamine, 10 microgramg/ml Blasticidin (Calbiochem, San Diego Calif.), […] Zeocin (InvivoGen, San Diego Calif.), followed by inducing indicated transgene expression using 1 microgram/ml Tetracycline for 16-24 hrs. Comparisons made to untransfected HEK cells or HEKTRexTRPV1 with or without induction.
# Cells washed and incubated with 0.2 micromolar Fluo-4 [54] for 30 minutes at 37° C. in a standard modified Ringer's solution of the following composition (in mM): NaCl 145, KCl 2.8, CsCl 10, CaCl2 10, MgCl2 2, glucose 10, Hepes. NaOH 10, pH 7.4, 330 mOsm. Cells transferred to 96-well plates at 50,000 cells/well and stimulated as indicated. Calcium signals acquired using a Flexstation 3 (Molecular Devices, Sunnydale, USA). Data are analyzed according to the methods in 1. Diaz-Franulic, J. Caceres-Molina, R. V. Sepulveda, F. Gonzalez-Nilo, R. Latorre, Structure-Driven Pharmacology of Transient Receptor Potential Channel Vanilloid 1, Molecular Pharmacology, 2016, volume 90, pages 300-8. […]
# T1 sequence (Q8NER1 whole entry): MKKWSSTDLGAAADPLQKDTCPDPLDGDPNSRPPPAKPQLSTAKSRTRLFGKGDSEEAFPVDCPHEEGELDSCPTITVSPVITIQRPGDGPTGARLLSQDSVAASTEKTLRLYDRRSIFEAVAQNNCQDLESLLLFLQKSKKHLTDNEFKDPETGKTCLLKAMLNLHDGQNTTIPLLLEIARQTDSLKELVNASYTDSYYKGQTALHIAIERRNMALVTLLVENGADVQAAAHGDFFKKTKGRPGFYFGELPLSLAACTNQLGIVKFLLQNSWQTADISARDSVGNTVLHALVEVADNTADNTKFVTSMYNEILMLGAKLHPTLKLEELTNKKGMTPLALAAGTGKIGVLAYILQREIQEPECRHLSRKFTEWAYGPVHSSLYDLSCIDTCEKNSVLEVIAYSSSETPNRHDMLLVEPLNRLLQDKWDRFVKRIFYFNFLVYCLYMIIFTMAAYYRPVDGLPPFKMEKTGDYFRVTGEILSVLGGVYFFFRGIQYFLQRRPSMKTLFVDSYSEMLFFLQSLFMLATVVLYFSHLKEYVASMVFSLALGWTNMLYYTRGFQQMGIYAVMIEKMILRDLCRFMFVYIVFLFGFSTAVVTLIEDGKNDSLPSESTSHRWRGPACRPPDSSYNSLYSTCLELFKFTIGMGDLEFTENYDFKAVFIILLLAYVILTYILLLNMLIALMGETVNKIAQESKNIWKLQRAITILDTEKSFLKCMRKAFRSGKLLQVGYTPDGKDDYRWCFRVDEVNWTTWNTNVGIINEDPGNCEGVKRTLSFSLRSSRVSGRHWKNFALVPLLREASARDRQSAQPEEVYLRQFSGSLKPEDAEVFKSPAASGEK
smiles,measurement,value
"C=C(C)[C@@H]1CCC(C)=C[C@H]1c1c(O)cc(CCCCC)cc1O [cannabidiol (11, CBD), Cannabidiol]","“biological finger print” and dose response on TRPV 1 channels (calcium signal), synthesized versus reference standard cannabidiol",same “biological finger print” and dose response
